Legend:
[1] = system: HTTQ94 Tet-on HT-22 cells; assay: Cell death assay, HTTQ94 Tet-on HT-22 cells under ROS stress (TBH); format: cell-based, mouse; settings: for effect of inhibitor on HTTQ94-mediated cell death upon ROS stress: then TBH 10 μM 8 h, Ferr-1 2 μM, Lipro-1 2 μM, DFO 100 μM, zVAD 10 μM, 3 MA 2 mM, Nec1 10 μM, Zileuton 10 μM, MK886 10 μM
Method: (A) Representative phase-contrast images of cell death from the HTTQ94 tet-on HT-22 cells. HTTQ94 Tet-on HT-22 cells were pre-incubated with doxycycline (0.5 μg/ml) for 4 h, and then treated with TBH (10 μM) for 8 h in the presence or absence of the ferroptosis inhibitors (ferrostatin-1, Ferr1, 2 μM; liproxstatin-1, Lipor1, 2 μM and DFO, 100 μM), apoptosis inhibitor (Z-VADFMK, zVAD, 10 μM), autophagy inhibitor (3-methylademine, 3 MA, 2 mM) or necroptosis inhibitor (necrostatin-1, Nec1, 10 μM). (B) Quantification of cell death, related to panel A. Three replicates for each group. […] Cell death were calculated from three replicates; Data shown in (B), (C), and (E) are means±SD. P-values were derived from two-tailed unpaired t-test. (***) P≤0.001, (**) P≤0.01, (*) P≤0.05, (n.s.) P >0.05.

[2] = system: HTTQ94 Tet-on HT-22 cells; assay: Cell death assay, HTTQ94 Tet-on HT-22 cells treated with glutamate; format: cell-based, mouse; settings: doxycycline 0.5 μg/ml and glutamate 10 mM, 20 h; for effect of inhibitor on HTTQ94-mediated ferroptosis upon glutamate induction: Ferr-1 2 μM, Zileuton 10 μM
Method: (G) Cell death assay in HTTQ94 Tet-on HT-22 cells. Cells were transfected with control siRNA (ctrl) or ALOX5 siRNA, followed by incubation with doxycycline (0.5 μg/ml) and glutamate (10 mM) for 16 h in the presence or absence of Ferr-1 (2 μM). Cell death were calculated from three replicates; Data shown in (A), (C), (E) and (G) are means±SD. P-values were derived from two-tailed unpaired t-test.
(E) Cell death assay. The HTTQ94 Tet-on HT-22 cells were treated with doxycycline (0.5 μg/ml) and glutamate (10 mM) in the presence or absence of Ferr-1(2 μM) or Zileuton (10 μM) for 20 h. […] Data shown in (B), (C), (D) and (E) are are means±SD. P-values were derived from two-tailed unpaired t-test.
Cells were plated at 20˜30% density one day prior to siRNAs transfection.
Cells were treated with ferroptosis inducer TBH or erastin or glutamate combined with other drugs or conditions. At indicated time points, cells were trypsinized and stained with trypan blue followed by counting with a hemocytometer using the cell number counter (Life technologies countess II). Living cells and dead cells were all counted, and cells stained blue were considered as dead cells.

[3] = system: HTTQ94 Tet-on HT-22 cells; assay: Cell death assay, HTTQ94 Tet-on HT-22 cells treated with erastin; format: cell-based, mouse; settings: doxycycline 0.5 μg/ml 4 h, then Erastin 1 μM 12 h; Ferr-1 2 μM, ROSI 10 μM, TRO 10 μM
Method: (B) HTTQ94 Tet-on HT-22 cells were pre-incubated with doxycycline (0.5 μg/ml) for 4 h, and then treated with Erastin (1 μM) for 12 h with/without Ferr-1 (2 μM). […] (E) Cell death assay. Control, HTTQ94 and HTTQ19 fragment Tet-on H1299 cells pre-incubated with doxycycline (0.5 μg/ml) for 16 h were treated with Erastin (30 μM) for 48 h with/without Ferr-1 (2 μM). Cell death were calculated from three replicates; Data shown in (B) and (E) are the means±SD. P-values were derived from two-tailed unpaired t-test. (***) P≤0.001, (**) P≤0.01, (*) P≤0.05, (n.s.) P >0.05.
(A) Cell death assay. HTTQ94 Tet-on HT-22 cells pre-incubated with doxycycline (0.5 μg/ml) for 4 h were treated with Erastin (1 μM) for 12 h in the presence or absence of ferrostatin-1 (Ferr-1, 2 μM) or ACSL4 inhibitors (rosiglitazone, ROSI, 10 μM; troglitazone, TRO, 10 μM). (B) Cell death assay. […] Cell death were calculated from three replicates. […]
Cells were treated with ferroptosis inducer TBH or erastin or glutamate combined with other drugs or conditions. […] Living cells and dead cells were all counted, and cells stained blue were considered as dead cells. Quantification of cell death was further confirmed using ToxiLight Non-destructive Cytotoxicity BioAssay Kit (LT07-117; Lonza). Data were collected using GloMax® Explorer Multimode Microplate Reader (Promega).

[4] = system: HT-22 HTTQ94 inducible cells; assay: TfR1 immunofluorescence staining of ferroptotic cells; format: cell-based, mouse; settings: doxycycline 1 μg/ml O/N
Method: FIGS. 13A-D. TfR1 staining is able to specifically recognize ferroptotic cells induced by HTTQ94 expression. (A) Limb clasping analysis in HD and HD/Alox5null mice (9-, 11- and 13-week-old). p<0.01, n=7. (B-D), TfR1 staining in HT-22 HTTQ94 inducible cells upon TBH treatment. HT-22 HTTQ94 inducible cells were treated 1 μg/ml doxycycline O/N to induce HTTQ94 expression, followed by treatment with 30 μM TBH for 6 h, and then cells were stained with TfR1 antibody. (B) Representative images of TfR1 staining. (C) Quantification of TfR1 staining. (D) Cell death assay, related to panel B. Data shown in (A) are means±SD. Data shown in (C) and (D) are means±SEM. P-values were derived from two-tailed unpaired t-test. (***) P<0.001, (**) P≤0.01, (*) P<0.05, (n.s.) P >0.05.
For cell line: HT-22 HTTQ94 inducible cells were fixed with 2% paraformaldehyde at RT for 20 min, and then incubated with blocking buffer (10% donkey serum, 0.3% Triton X-100 in PBS), followed by incubation with TfR1 antibody (1: 250, Thermo Fisher Scientific, Cat #13-6800) for 1 h, and then incubation with Alexa 568 conjugated secondary antibody (1:250, Thermo Fisher Scientific, Cat #A11004) for additional 1 h.

[5] = system: cellular models of Huntington's disease (HD); settings: Skouta et al. 2014; cited from earlier work
[6] = system: mHTT-mediated ferroptosis; assay: mHTT-mediated ferroptosis (summary statement); format: cell-based; settings: general statement

## Clc1cccc(CN=C2Nc3ccccc3NC23CCNCC3)c1 [Lipro-1, liproxstatin-1]
[1]; doxycycline 0.5 μg/ml 4 h
  effect of inhibitor on HTTQ94-mediated cell death upon ROS stress: specifically blocked

## N[C@@H](CCC(=O)O)C(=O)O [glutamate]
[2]
  cell death induced by inducer upon HTTQ94 expression: high levels of cell death

## CCOC(=O)c1ccc(NC2CCCCC2)c(N)c1 [ferrostatin-1]
[3]
  effect of inhibitor on HTTQ94-mediated cell death (ferroptosis) upon erastin: completely inhibited
[1]; doxycycline 0.5 μg/ml 4 h
  effect of inhibitor on HTTQ94-mediated cell death upon ROS stress: specifically blocked
[2]
  effect of inhibitor on HTTQ94-mediated ferroptosis upon glutamate induction: inhibited
[4]; then TBH 30 μM 6 h, with Ferr-1
  effect of inhibitor on levels of anti-TfR1 antibody staining: abolished
[5]
  rescue of cell death: significantly rescued

## CC(=O)N(O)CCCCCNC(=O)CCC(=O)N(O)CCCCCNC(=O)CCC(=O)N(O)CCCCCN [DFO]
[1]; doxycycline 0.5 μg/ml 4 h
  effect of inhibitor on HTTQ94-mediated cell death upon ROS stress: specifically blocked

## CC(C)(C)OO [TBH, tert-butyl hydroperoxide]
[1]; TBH 10 μM 8 h, no HTTQ94 induction
  cell death induced by inducer alone: failed to induce any cell death
[1]; doxycycline 0.5 μg/ml 4 h, TBH 10 μM 8 h
  cell death induced by inducer combined with HTTQ94 expression: high levels of cell death
[4]; TBH 30 μM 6 h
  levels of anti-TfR1 antibody staining cells with inducer upon HTTQ94 induction: dramatically increased

## CC(c1cc2ccccc2s1)N(O)C(N)=O (racemic) [Zileuton, (±)-1 (1-Benzo[b]thien-2-ylethyl)-1-hydroxyurea]
[2]
  effect of inhibitor on HTTQ94-mediated ferroptosis upon glutamate induction: completely blocked
[6]
  block of mHTT-mediated ferroptosis: effectively blocked

Reference: US20240299347A1, “METHODS AND COMPOSITIONS TO TREAT HUNTINGTON'S DISEASE BY TARGETING ALOX5- MEDIATED FERROPTOSIS” (The Trustees of Columbia University in the City of New York, priority 2023, published 2024)
